Measurements taken from US7041785B1, “B1-bradykinin receptor antagonists and use thereof” (Université de Sherbrooke, priority 1996, dated 2006).
Like-named read-outs stand apart in the source and are kept apart here. Non-standard residues stand in square brackets, D forms with d. Residues, ends and D or L forms follow the SMILES beside them. Tyr(3,5-I2) = N[C@@H](Cc1cc(I)c(O)c(I)c1)C(=O)O; d2Nal = N[C@H](Cc1ccc2ccccc2c1)C(=O)O; Ahx = NCCCCCC(=O)O; Sar = CNCC(=O)O

Experiments:
[1] = test system: T1, angiotensin-converting enzyme (ACE); test: Metabolic degradation by purified angiotensin-converting enzyme, HPLC analysis; format: in vitro ADME, rabbit; details: rabbit, isolated enzyme ace, pH 7.5
T1 construct: purified angiotensin-converting enzyme (ACE) from rabbit lungs; purchased Sigma, St-Louis, Mo; host or cells: purified from rabbit lungs
How it was run: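 Purified rabbit lung ACE (45 μg/mL final) in PBS (50 mmol/L, pH 7.5, 300 mmol/L NaCl) was incubated with peptides at 37 °C; peptides were pre-incubated 5 min before enzyme addition and samples were boiled to stop the reaction. Percent kinin degradation after 30 min was quantified by C18 reverse-phase HPLC at 214 nm, with metabolites identified by electrospray MS.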

[2] = target: T2, angiotensin-converting enzyme (ACE) from rabbit lungs (Oryctolagus cuniculus, UniProt P12822); test: as above; format: in vitro ADME; parameters: purified angiotensin-converting enzyme (ACE) from rabbit lungs; purchased Sigma, St-Louis, Mo; host or cells: purified from rabbit lungs
T2 sequence (P12822 34-1310): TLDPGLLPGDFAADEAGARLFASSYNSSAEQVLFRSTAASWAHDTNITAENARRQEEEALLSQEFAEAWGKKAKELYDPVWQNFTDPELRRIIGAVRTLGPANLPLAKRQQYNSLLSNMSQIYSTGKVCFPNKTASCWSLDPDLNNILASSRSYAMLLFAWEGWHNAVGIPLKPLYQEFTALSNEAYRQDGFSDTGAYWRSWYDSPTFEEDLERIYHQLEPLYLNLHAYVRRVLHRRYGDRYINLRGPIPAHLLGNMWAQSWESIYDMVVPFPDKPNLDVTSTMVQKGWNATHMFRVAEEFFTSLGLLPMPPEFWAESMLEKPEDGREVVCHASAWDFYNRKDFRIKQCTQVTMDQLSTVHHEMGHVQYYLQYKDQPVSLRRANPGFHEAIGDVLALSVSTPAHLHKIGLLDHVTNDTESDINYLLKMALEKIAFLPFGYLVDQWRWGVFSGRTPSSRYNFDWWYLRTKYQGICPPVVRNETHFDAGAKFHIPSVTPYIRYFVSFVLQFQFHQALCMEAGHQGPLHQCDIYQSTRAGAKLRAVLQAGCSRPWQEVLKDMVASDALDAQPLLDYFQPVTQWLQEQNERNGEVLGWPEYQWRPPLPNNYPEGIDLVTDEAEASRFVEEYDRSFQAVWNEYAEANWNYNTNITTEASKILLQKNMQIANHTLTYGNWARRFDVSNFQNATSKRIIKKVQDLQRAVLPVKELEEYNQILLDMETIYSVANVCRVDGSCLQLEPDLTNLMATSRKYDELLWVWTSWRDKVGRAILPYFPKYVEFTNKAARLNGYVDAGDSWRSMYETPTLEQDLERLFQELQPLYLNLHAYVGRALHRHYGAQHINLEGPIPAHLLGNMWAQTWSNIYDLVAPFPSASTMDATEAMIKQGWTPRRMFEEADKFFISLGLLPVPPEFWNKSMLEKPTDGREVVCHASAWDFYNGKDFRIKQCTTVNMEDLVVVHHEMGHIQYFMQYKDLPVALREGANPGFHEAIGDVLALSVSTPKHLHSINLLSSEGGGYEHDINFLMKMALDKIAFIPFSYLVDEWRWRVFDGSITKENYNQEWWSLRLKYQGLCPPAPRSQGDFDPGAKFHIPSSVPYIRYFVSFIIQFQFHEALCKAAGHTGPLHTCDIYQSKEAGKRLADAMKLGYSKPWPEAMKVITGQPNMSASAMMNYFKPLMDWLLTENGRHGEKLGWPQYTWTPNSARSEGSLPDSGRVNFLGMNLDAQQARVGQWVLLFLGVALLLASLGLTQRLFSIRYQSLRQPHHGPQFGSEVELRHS
Experimental: The metabolic stability of various kinin-related peptides was evaluated by incubating the peptide in the presence of purified angiotensin-converting enzyme (ACE) from rabbit lungs (purchased from Sigma, St-Louis, Mo.) dissolved in phosphate buffered saline (PBS) (50 mmol/L, pH 7.5 containing 300 mmoL/L NaCl); the final concentration of enzyme was 45 μg/mL. The experimental protocol for the measurement of ACE activity has been described elsewhere^15,16. Briefly, 200 μmol/L of peptides (40 μL) were placed in a PBS buffer and incubated for 5 min at 37EC before adding 8.5 μL of ACE (total volume of the reaction medium; 190 μL). Samples were withdrawn at 30 min intervals, immersed in boiling water for 5 min, then cooled on ice and centrifuged (5 min) before proceeding to analysis of peptides by high pressure liquid chromatography (HPLC). Results of ACE metabolism are expressed in percent of kinin degradation following the incubation (30 min) of kinin substrates with the enzyme.
Pure peptides and metabolic products were analysed by reverse-phas HPLC on a C18 μBondapak column (4.6 mm×25 cm) (Waters) of 10-μm particle size. The peptides and their fragments were eluted at the rate of 2.0 mL/min. with a linear gradient ranging from 5 to 65% of acetonitrile/TFA 0.05%/water over 20 min. at room temperature. The elution positions of these peptides were determined by following the absorbance at 214 nm. For each assay, 50 μL of the reaction medium (treated or not with ACE) were extracted and injected into the column. Concentrations of the peaks products, different from the peaks of the peptide substrate, were estimated using a computer software program (Baseline 810; Waters) that controlled also all the chromatography operations. Isolated metabolites and substrates were collected and identified by Electrospray mass spectrometry (positive mode).

SMILES | metabolised at 0.5 h, 42.1 μmol/L [1] | Less susceptible to ACE proteolytic degradation, relative to Lys(Leu8)desArgBK [2] | metabolised at 0.5 h, 42.1 μmol/L ([1]; 30 min incubation of peptide (200 μmol/L) with ACE, 37 C, read-out: ACE (% degradation))
CC(=O)N[C@@H](CCCCN)C(=O)N[C@@H](CCCNC(=N)N)C(=O)N1CCC[C@H]1C(=O)N1CCC[C@H]1C(=O)NCC(=O)N[C@@H](Cc1ccccc1)C(=O)N[C@@H](CO)C(=O)N[C@H](Cc1ccc2ccccc2c1)C(=O)N[C@@H](CC(C)C)C(=O)O [Compound 18, AcLys(D-βNal^7, Leu^8)desArg^9BK] (Ac-KRPPGFS[d2Nal]L-OH; C-terminus assumed) | 22 ± 1% | 2-5 times | –
CC[C@H](C)[C@H](NC(=O)[C@@H](Cc1ccc2ccccc2c1)NC(=O)[C@H](CO)NC(=O)[C@H](Cc1ccccc1)NC(=O)CNC(=O)[C@@H]1CCCN1C(=O)[C@@H]1CCCN1C(=O)[C@H](CCCN=C(N)N)NC(=O)[C@H](CCCCN)NC(C)=O)C(=O)O [Compound 19, AcLys(D-βNal^7, Ile^8)desArg^9BK] (Ac-KRPPGFS[d2Nal]I-OH) | 34 ± 1% | 2-5 times | –
CC[C@H](C)[C@H](NC(=O)[C@@H](Cc1ccc2ccccc2c1)NC(=O)[C@H](CO)NC(=O)[C@H](Cc1ccccc1)NC(=O)CNC(=O)[C@@H]1CCCN1C(=O)[C@@H]1CCCN1C(=O)[C@H](CCCNC(=N)N)NC(=O)[C@H](N)CCCNC(=N)N)C(=O)O [Compound 23, D-Arg(D-βNal^7, Ile^8)desArg^9BK] (H-[dR]RPPGFS[d2Nal]I-OH; N-terminus and C-terminus assumed) | 8 ± 1% | 2-5 times | –
CC(C)C[C@H](NC(=O)[C@@H](Cc1ccc2ccccc2c1)NC(=O)[C@H](CO)NC(=O)[C@H](Cc1ccccc1)NC(=O)CNC(=O)[C@@H]1CCCN1C(=O)[C@@H]1CCCN1C(=O)[C@H](CCCNC(=N)N)NC(=O)[C@H](N)CCCNC(=N)N)C(=O)O [Compound 24, D-Arg(D-βNal^7, Leu^8)desArg^9BK] (H-[dR]RPPGFS[d2Nal]L-OH; N-terminus and C-terminus assumed) | 5 ± 1% | 2-5 times | –
CC[C@H](C)[C@H](NC(=O)[C@@H](Cc1ccc2ccccc2c1)NC(=O)[C@H](CO)NC(=O)[C@H](Cc1ccccc1)NC(=O)CNC(=O)[C@@H]1CCCN1C(=O)[C@@H]1CCCN1C(=O)[C@H](CCCNC(=N)N)NC(=O)[C@H](N)CCCCN)C(=O)O [Compound 25, D-Lys(D-βNal^7, Ile^8)desArg^9BK] (H-[dK]RPPGFS[d2Nal]I-OH; N-terminus and C-terminus assumed) | 9 ± 2% | 2-5 times | –
CC[C@H](C)[C@H](NC(=O)[C@@H](Cc1ccc2ccccc2c1)NC(=O)[C@H](CO)NC(=O)[C@H](Cc1ccccc1)NC(=O)CNC(=O)[C@@H]1CCCN1C(=O)[C@@H]1CCCN1C(=O)[C@H](CCCNC(=N)N)NC(=O)CNC)C(=O)O [Compound 26, Sar(D-βNal^7, Ile^8)desArg^9BK] (H-[Sar]RPPGFS[d2Nal]I-OH; N-terminus and C-terminus assumed) | – | 2-5 times | 0%
CC(=O)N[C@@H](Cc1ccc(O)cc1)C(=O)NCCCCCC(=O)N[C@@H](CCCCN)C(=O)N[C@@H](CCCNC(=N)N)C(=O)N1CCC[C@H]1C(=O)N1CCC[C@H]1C(=O)NCC(=O)N[C@@H](Cc1ccccc1)C(=O)N[C@@H](CO)C(=O)N1CCC[C@H]1C(=O)N[C@@H](CC(C)C)C(=O)O [Compound 27, AcTyrεAhxLys(Leu^8)desArg^9BK] | 52 ± 1% | 2-5 times | –
CNCC(=O)N[C@@H](Cc1ccc(O)cc1)C(=O)NCCCCCC(=O)N[C@@H](CCCCN)C(=O)N[C@@H](CCCNC(=N)N)C(=O)N1CCC[C@H]1C(=O)N1CCC[C@H]1C(=O)NCC(=O)N[C@@H](Cc1ccccc1)C(=O)N[C@@H](CO)C(=O)N1CCC[C@H]1C(=O)N[C@@H](CC(C)C)C(=O)O [Compound 28, SarTyrεAhxLys(Leu^8)desArg^9BK] | 34 ± 3% | 2-5 times | –
CC[C@H](C)[C@H](NC(=O)[C@@H](Cc1ccc2ccccc2c1)NC(=O)[C@H](CO)NC(=O)[C@H](Cc1ccccc1)NC(=O)CNC(=O)[C@@H]1CCCN1C(=O)[C@@H]1CCCN1C(=O)[C@H](CCCNC(=N)N)NC(=O)[C@H](CCCCN)NC(=O)CCCCCNC(=O)[C@H](Cc1ccc(O)cc1)NC(=O)CNC)C(=O)O [Compound 29, SarTyrεAhxLys(D-βNal^7, Ile^8)desArg^9BK] (H-[Sar]Y[Ahx]KRPPGFS[d2Nal]I-OH; N-terminus and C-terminus assumed) | 15 ± 1% | 2-5 times | –
CC[C@H](C)[C@H](NC(=O)[C@@H](Cc1ccc2ccccc2c1)NC(=O)[C@H](CO)NC(=O)[C@H](Cc1ccccc1)NC(=O)CNC(=O)[C@@H]1CCCN1C(=O)[C@@H]1CCCN1C(=O)[C@H](CCCNC(=N)N)NC(=O)[C@H](CCCCN)NC(=O)CCCCCNC(=O)[C@H](Cc1cc(I)c(O)c(I)c1)NC(=O)CNC)C(=O)O [Compound 30, SarTyr(3,5-I)εAhxLys(D-βNal^7, Ile^8)desArg^9BK] (H-[Sar][Tyr(3,5-I2)][Ahx]KRPPGFS[d2Nal]I-OH; N-terminus and C-terminus assumed) | 13 ± 1% | 2-5 times | –
